# Laboratory results reported in patent US7655629B2, “Peptides and their use for the treatment of HIV infections” (priority 2002, dated 2010).
# Positions of bridges follow the written chain, without caps; N, C: chain ends. Non-standard residues stand in square brackets, D forms with d. Residues, ends and D or L forms follow the SMILES beside them.
# System: X4-tropic HIV-1 NL4-3
# Settings: for IC50: read-out: IC50 NL4-3, P4-CCR5 cells, HIV-1 NL4-3, peptide 2 h before infection, readout three days after infection
# Source text: These cells contain the β-galactosidase reporter gene under the control of the HIV-1 promoter. Thus, activation of the β-galactosidase reporter gene allows to measure the efficiency of HIV-1 infection and thus to quantitate the potency of HIV-1 inhibitors (Detheux M. et al., 2000; Journal of Experimental Medicine 192, 1501-1508; Münch et al., 2002; Antimicrobial Agents and Chemotherapy 46, 982-990).
# To perform a typical infection assay, P4-CCR5 cells (Charneau et al., 1994; Journal of Molecular Biology 241, 651-662; Charneau et al., Virology. 1994 205, 247-53) were kept in RPMI 1640 medium supplemented with 10 volume % FCS. This cell line coexpresses CD4 and both HIV-1 coreceptors CCR5 and CXCR4 and contains the β-galactosidase gene under the control of the HIV-1 promoter. Virus stocks were generated by the calcium coprecipitation method as described (Detheux et al., J Exp Med. 192:1501-8; 2000), and the p24 antigen levels were quantitated with an HIV p24 ELISA kit obtained through the NIH AIDS Reagent Program. Cells were seeded in flat-bottomed 96-well dishes, cultured overnight, and incubated with the different doses of peptide for 2 h before infection with virus containing 1 ng of p24 antigen in a total volume of […] of medium. After overnight incubation, cells were washed twice and cultivated in fresh culture medium without inhibitory peptide. Three days after infection the cells were lysed, and infectivity was quantitated using the Galacto-Light Plus™ chemiluminescence reporter assay kit (Tropix, Bedford, Mass.) as recommended by the manufacturer. All infections were performed in quintuplicate.
structure (smiles),measurement,setting,value
CC[C@H](C)[C@H](NC(=O)[C@H](C)NC(=O)[C@H](CCC(=O)O)NC(=O)[C@@H](N)CC(C)C)C(=O)N1CCC[C@H]1C(=O)N[C@H]1CSSC[C@@H](C(=O)N[C@@H](Cc2ccccc2)C(=O)N[C@@H](CC(C)C)C(=O)N[C@@H](Cc2ccccc2)C(=O)NCC(=O)N[C@@H](CCCCN)C(=O)N2CCC[C@H]2C(=O)N[C@@H](Cc2ccccc2)C(=O)N[C@H](C(=O)N[C@@H](Cc2ccccc2)C(=O)O)C(C)C)NC(=O)[C@@H]2CCCN2C(=O)[C@@H]2CCCN2C(=O)[C@H]([C@@H](C)CC)NC(=O)[C@H](CO)NC1=O [VIR-280] (H-LEAIPCSIPPCFLFGKPFVF-OH; disulfide 6-11),increase in anti-HIV activity in comparison to VIRIP,"from IC50 against two HIV-1 strains (NL4-3, DTV)",161 fold
"CC[C@H](C)[C@H](NC(=O)[C@@H]1CCCN1C(=O)[C@@H](NC(=O)[C@H](C)NC(=O)[C@H](CCC(=O)O)NC(=O)[C@@H](N)CC(C)C)[C@@H](C)CC)C(=O)N[C@@H](CO)C(=O)N[C@H](C(=O)N1CCC[C@H]1C(=O)N1CCC[C@@H]1C(=O)N[C@@H](CCC(=O)O)C(=O)N[C@H](C(=O)N[C@@H](Cc1ccccc1)C(=O)N[C@@H](Cc1ccccc1)C(=O)NCC(=O)N[C@@H](CCCCN)C(=O)N1CCC[C@H]1C(=O)N[C@@H](Cc1ccccc1)C(=O)N[C@H](C(=O)N[C@@H](Cc1ccccc1)C(=O)O)C(C)C)C(C)C)[C@@H](C)CC [VIR-290, LEAIPISIPpEVFFGKPFVF] (H-LEAIPISIP[dP]EVFFGKPFVF-OH)",IC50,,562 nM
"CC[C@H](C)[C@H](NC(=O)[C@@H]1CCCN1C(=O)[C@@H](NC(=O)[C@H](C)NC(=O)[C@H](CCC(=O)O)NC(=O)[C@@H](N)CC(C)C)[C@@H](C)CC)C(=O)N[C@@H](CO)C(=O)N[C@H](C(=O)N1CCC[C@H]1C(=O)N1CCC[C@@H]1C(=O)N[C@@H](CCC(=O)O)C(=O)N[C@H](C(=O)N[C@@H](Cc1c[nH]c2ccccc12)C(=O)N[C@@H](Cc1ccccc1)C(=O)N[C@@H](CC(N)=O)C(=O)N[C@@H](CCCCN)C(=O)N1CCC[C@H]1C(=O)N[C@@H](Cc1ccccc1)C(=O)N[C@H](C(=O)N[C@@H](Cc1ccccc1)C(=O)O)C(C)C)C(C)C)[C@@H](C)CC [VIR-298, LEAIPISIPpEVWFNKPFVF] (H-LEAIPISIP[dP]EVWFNKPFVF-OH)",IC50,,969 nM
"CC[C@H](C)[C@H](NC(=O)[C@H](C)NC(=O)[C@H](CCC(=O)O)NC(=O)[C@@H](N)CC(C)C)C(=O)N1CCC[C@H]1C(=O)N[C@@H](CCSC)C(=O)NCC(=O)N[C@H](C(=O)N1CCC[C@H]1C(=O)N1CCC[C@@H]1C(=O)N[C@@H](CCC(=O)O)C(=O)N[C@H](C(=O)N[C@@H](Cc1ccccc1)C(=O)N[C@@H](Cc1ccccc1)C(=O)NCC(=O)N[C@@H](CCCCN)C(=O)N1CCC[C@H]1C(=O)N[C@@H](Cc1ccccc1)C(=O)N[C@H](C(=O)N[C@@H](Cc1ccccc1)C(=O)O)C(C)C)C(C)C)[C@@H](C)CC [VIR-320, LEAIPMGIPpEVFFGKPFVF] (H-LEAIPMGIP[dP]EVFFGKPFVF-OH)",IC50,,277 nM
"CC[C@H](C)[C@H](NC(=O)[C@H](C)NC(=O)[C@H](CCC(=O)O)NC(=O)[C@@H](N)CC(C)C)C(=O)N1CCC[C@H]1C(=O)N[C@@H](CCSC)C(=O)NCC(=O)N[C@H](C(=O)N1CCC[C@H]1C(=O)N1CCC[C@@H]1C(=O)N[C@@H](CCC(=O)O)C(=O)N[C@H](C(=O)N[C@@H](Cc1ccccc1)C(=O)N[C@@H](Cc1ccccc1)C(=O)N[C@@H](CC(N)=O)C(=O)N[C@@H](CCCCN)C(=O)N1CCC[C@H]1C(=O)N[C@@H](Cc1ccccc1)C(=O)N[C@H](C(=O)N[C@@H](Cc1ccccc1)C(=O)O)C(C)C)C(C)C)[C@@H](C)CC [VIR-322, LEAIPMGIPpEVFFNKPFVF] (H-LEAIPMGIP[dP]EVFFNKPFVF-OH)",IC50,,836 nM
